Several values for one entry are separate records, joined by “and”; a condition that tells them apart may be missing. Equal entries are not always repeated.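 Tested at 5 concentrations; 48 h exposure; 96-well plates; endpoints linearly interpolated, else capped at highest concentration. Abbreviation: GI50, concentration required for 50% inhibition of growth.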 Activity calls are given as the source filed them. Cut-off read from the data, not from the text of the source: active = GI50 up to about 1.1 µM and inactive = higher.
What was measured:
Experiment in all cases: inhibition of tumour cell growth, NCI panel, 48 h
M14 = test system: M14
SF-539 = test system: SF-539
NCI/ADR-RES = test system: NCI/ADR-RES
SN12C = test system: SN12C
HCT-116 = test system: HCT-116
OVCAR-8 = test system: OVCAR-8
RXF 393 = test system: RXF 393
K562 = test system: K562
Hs-578T = test system: Hs-578T
NCI-H226 = test system: NCI-H226
CAKI-1 = test system: CAKI-1
ACHN = test system: ACHN
MDA-MB-231 = test system: MDA-MB-231
SK-MEL-28 = test system: SK-MEL-28
CCRF-CEM = test system: CCRF-CEM
Malme-3M = test system: Malme-3M
HOP-92 = test system: HOP-92
DU-145 = test system: DU-145
BT-549 = test system: BT-549
HCC 2998 = test system: HCC 2998

Row | SMILES | GI50 (M14) | GI50 (SF-539) | GI50 (NCI/ADR-RES) | GI50 (SN12C) | GI50 (HCT-116) | GI50 (OVCAR-8) | GI50 (RXF 393) | GI50 (K562) | GI50 (Hs-578T) | GI50 (NCI-H226) | GI50 (CAKI-1) | GI50 (ACHN) | GI50 (MDA-MB-231) | GI50 (SK-MEL-28) | GI50 (CCRF-CEM) | GI50 (Malme-3M) | GI50 (HOP-92) | GI50 (DU-145) | GI50 (BT-549) | GI50 (HCC 2998)
1 | COC(=O)C1=C(C)NC(=S)NC1c1ccc(N(CCCl)CCCl)cc1Cl (stereo not drawn) | 32.5 µM (inactive) | > 72.6 µM (inactive) | 37 µM (inactive) | 34.2 µM (inactive) | 34 µM (inactive) | 31 µM (inactive) | > 34.9 µM (inactive) | 8.99 µM (inactive) | > 22 µM (inactive) | 3.56 µM (inactive) | 2 µM (inactive) | 11 µM (inactive) | 21 µM (inactive) | 29 µM (inactive) | 0.824 µM (active) | 3.04 µM (inactive) | 74.8 µM (inactive) | 12.4 µM (inactive) |  | 
2 | CC(=O)OCC(OC(C)=O)C(OC(C)=O)C(/C=N\Nc1nc2ccccc2c(=O)[nH]1)OC(C)=O (stereo not drawn) | > 100 µM (inactive) | > 100 µM (inactive) | 24.9 µM (inactive) and 34.5 µM (inactive) | > 100 µM (inactive) | > 100 µM (inactive) | > 100 µM (inactive) |  | > 100 µM (inactive) |  | > 100 µM (inactive) and 89.9 µM (inactive) | > 100 µM (inactive) | > 100 µM (inactive) | > 100 µM (inactive) | > 100 µM (inactive) | > 100 µM (inactive) |  | > 100 µM (inactive) | > 100 µM (inactive) | > 100 µM (inactive) | 
3 | COc1cc(OC2OC(CO)C(O)C(O)C2O)c2c(c1)O[C@@H]1[C@H](O)Oc3cc(OC)c(OC)cc3[C@]1(O)C2=O (stereo partly drawn) | > 25 µM (inactive) | > 25 µM (inactive) | > 25 µM (inactive) | > 25 µM (inactive) | > 25 µM (inactive) | > 25 µM (inactive) |  | > 25 µM (inactive) | > 25 µM (inactive) | > 25 µM (inactive) | > 25 µM (inactive) | > 25 µM (inactive) | > 25 µM (inactive) | > 25 µM (inactive) | > 25 µM (inactive) |  | > 25 µM (inactive) | > 25 µM (inactive) |  | > 25 µM (inactive)
4 | O=S(=O)(/N=c1\[nH]c(-c2cc(O)c(O)c(O)c2)cs1)c1ccc(Cl)cc1Cl | 22.1 µM (inactive) | 27.6 µM (inactive) | 26.4 µM (inactive) | 18.7 µM (inactive) | 19 µM (inactive) | 0.034 µM (active) | 25.5 µM (inactive) | 18.6 µM (inactive) | 20.1 µM (inactive) | 50.4 µM (inactive) | 17.3 µM (inactive) | 14.6 µM (inactive) | 21.3 µM (inactive) | > 100 µM (inactive) | 19.9 µM (inactive) | 21.8 µM (inactive) | 41.2 µM (inactive) | 20.3 µM (inactive) |  | 
5 | CC(=O)OCC1OC(SC2OC(COC(C)=O)C(OC(C)=O)C(OC(C)=O)C2OC(C)=O)C(OC(C)=O)C(OC(C)=O)C1OC(C)=O (stereo not drawn) |  | > 100 µM (inactive) | > 100 µM (inactive) | > 100 µM (inactive) | > 100 µM (inactive) | > 100 µM (inactive) | > 100 µM (inactive) | > 100 µM (inactive) |  | > 100 µM (inactive) | > 100 µM (inactive) | 52.5 µM (inactive) | > 100 µM (inactive) | > 100 µM (inactive) | > 100 µM (inactive) | > 100 µM (inactive) |  | > 100 µM (inactive) | > 100 µM (inactive) | > 100 µM (inactive)
6 | C/C(O[Si](C(C)C)(C(C)C)C(C)C)=C(\C)C(=O)N(C)c1ccccc1Cl | > 100 µM (inactive) | > 100 µM (inactive) | > 100 µM (inactive) | > 100 µM (inactive) | > 100 µM (inactive) | > 100 µM (inactive) | > 100 µM (inactive) |  |  | > 100 µM (inactive) | > 100 µM (inactive) | > 100 µM (inactive) | > 100 µM (inactive) | > 100 µM (inactive) |  | > 100 µM (inactive) | > 100 µM (inactive) | > 100 µM (inactive) | > 100 µM (inactive) | 
7 | CCOC(=O)CN1C(=O)C(=O)N(c2ccc(OC)c3ccccc23)C1=O | > 100 µM (inactive) | > 100 µM (inactive) | > 100 µM (inactive) | > 100 µM (inactive) | > 100 µM (inactive) | > 100 µM (inactive) | > 100 µM (inactive) | > 100 µM (inactive) |  | 45.1 µM (inactive) | > 100 µM (inactive) | > 100 µM (inactive) |  | > 100 µM (inactive) | > 100 µM (inactive) | > 100 µM (inactive) |  | > 100 µM (inactive) | > 100 µM (inactive) | > 100 µM (inactive)
8 | O=C1CC[C@@]2(O)[C@H]3Cc4ccc(-c5cccc(O)c5)c5c4[C@@]2(CCN3CC2CC2)[C@H]1O5 | 12.1 µM (inactive) | 18.9 µM (inactive) | 15.8 µM (inactive) | 17.6 µM (inactive) | 11.4 µM (inactive) | 19.6 µM (inactive) | 17.3 µM (inactive) | 21.9 µM (inactive) |  | 29.3 µM (inactive) | 37.6 µM (inactive) | 25.4 µM (inactive) | 22.4 µM (inactive) | 32.2 µM (inactive) | < 0.01 µM (active) |  | 25.7 µM (inactive) | 22.6 µM (inactive) | 21.6 µM (inactive) | 16.4 µM (inactive)
9 | CCOC(=O)c1cc2cc(C)cc(C(=O)c3ccc([N+](=O)[O-])cc3)c2[nH]1 | > 100 µM (inactive) | > 100 µM (inactive) |  | > 100 µM (inactive) | > 100 µM (inactive) |  | 37.7 µM (inactive) | > 100 µM (inactive) | 41.2 µM (inactive) | > 100 µM (inactive) | > 100 µM (inactive) | > 100 µM (inactive) | 38.5 µM (inactive) | > 100 µM (inactive) | > 10 µM (inactive) | > 100 µM (inactive) | 93.8 µM (inactive) | > 100 µM (inactive) | > 100 µM (inactive) | > 100 µM (inactive)
10 | CC(C)/C(Cl)=N\OC(NC(=O)P(=O)(c1ccccc1)c1ccccc1)(C(F)(F)F)C(F)(F)F | 4.14 µM (inactive) | 13.5 µM (inactive) | 12.8 µM (inactive) | 11.9 µM (inactive) | 9.16 µM (inactive) | 13 µM (inactive) | 14.6 µM (inactive) | 4.25 µM (inactive) | 23.9 µM (inactive) | 10.3 µM (inactive) | 23.7 µM (inactive) | 3.62 µM (inactive) | 16 µM (inactive) | 14.9 µM (inactive) | 5.01 µM (inactive) | 7.52 µM (inactive) | 2.46 µM (inactive) | 11.1 µM (inactive) |  | 14.8 µM (inactive)
11 | N/N=C1/CCCc2nonc21 | > 100 µM (inactive) | > 100 µM (inactive) | > 100 µM (inactive) | > 100 µM (inactive) | > 100 µM (inactive) | > 100 µM (inactive) | > 100 µM (inactive) | > 100 µM (inactive) | > 100 µM (inactive) |  | > 100 µM (inactive) | > 100 µM (inactive) | > 100 µM (inactive) | > 100 µM (inactive) | > 100 µM (inactive) | > 100 µM (inactive) | > 100 µM (inactive) | > 100 µM (inactive) |  | > 100 µM (inactive)
12 | Cc1nc(Nc2ccc(Cl)c(Cl)c2)sc1C(=O)/C=C/c1ccc2c(c1)OCO2 |  | 23.7 µM (inactive) | 34.4 µM (inactive) |  | 20.6 µM (inactive) | 23.2 µM (inactive) | 15.9 µM (inactive) | 31.6 µM (inactive) |  | 25.9 µM (inactive) | 16.5 µM (inactive) | 16.8 µM (inactive) |  | 31.7 µM (inactive) | 31.8 µM (inactive) | 31.9 µM (inactive) |  | > 10 µM (inactive) | 21.5 µM (inactive) | 30.2 µM (inactive)
13 | O=C(Nc1cccc(F)c1)c1cc2ccc(O)cc2o/c1=N\c1cccc(F)c1 | 7.73 µM (inactive) | 19.8 µM (inactive) | 3.4 µM (inactive) | 5.96 µM (inactive) | 4.78 µM (inactive) | 2.31 µM (inactive) |  | 2.38 µM (inactive) | 3.09 µM (inactive) |  | 15.3 µM (inactive) | 4.88 µM (inactive) |  | 5.09 µM (inactive) | 2.22 µM (inactive) | 4.37 µM (inactive) |  | 4.27 µM (inactive) | 4.82 µM (inactive) | 27.1 µM (inactive)
14 | O=C(CN1CCOCC1)NC1=Nc2ncccc2C(=O)NN1 | > 10 µM (inactive) | > 10 µM (inactive) |  | > 10 µM (inactive) | > 10 µM (inactive) | > 10 µM (inactive) | > 10 µM (inactive) | > 10 µM (inactive) | > 10 µM (inactive) | > 10 µM (inactive) |  | > 10 µM (inactive) | > 10 µM (inactive) | > 10 µM (inactive) | > 10 µM (inactive) | > 10 µM (inactive) | > 10 µM (inactive) | > 10 µM (inactive) | > 10 µM (inactive) | 
15 | O=C(/C=C/c1ccc(O)c(O)c1O)OCCc1ccccc1 | 20 µM (inactive) | 37.3 µM (inactive) | 29.8 µM (inactive) | 18.4 µM (inactive) | 13.5 µM (inactive) |  | 36.1 µM (inactive) | 11.6 µM (inactive) | > 100 µM (inactive) | 27.7 µM (inactive) | > 100 µM (inactive) | 39.2 µM (inactive) | 24.9 µM (inactive) | > 100 µM (inactive) |  | > 100 µM (inactive) | 56.1 µM (inactive) | > 100 µM (inactive) |  | > 100 µM (inactive)
16 | O=S1(=O)OCCOS(=O)(=O)C1S(=O)(=O)c1ccc2ccccc2c1 | > 100 µM (inactive) |  | > 100 µM (inactive) | > 100 µM (inactive) | > 100 µM (inactive) | > 100 µM (inactive) |  | > 100 µM (inactive) |  |  | > 100 µM (inactive) | > 100 µM (inactive) | > 100 µM (inactive) | > 100 µM (inactive) | > 100 µM (inactive) | > 100 µM (inactive) | > 100 µM (inactive) | > 100 µM (inactive) | > 100 µM (inactive) | > 100 µM (inactive)

— ChEMBL document CHEMBL1201862, “PubChem BioAssay data set” (2004)
